Assay results published in patent publication US20070015723A1, “Antiviral oligonucleotides having a conserved G4 core sequence” (priority 1992, published 2007).

Experiments:
[1] = tested on: phospholipase A2 from Agkistrodon piscivorus piscivorus
[2] = tested on: Naja naja naja phospholipase A2

For “ISIS 3196: GGG T GGG T ATA G AAG G GCT CC, P = S, SEQ ID NO 47 (GGGTGGGTATAGAAGGGCTCC; all phosphorothioate, sugars by position and methylation of C not given here)”, the IC50 [1] was ~3000 nM and the IC50 [2] was > 10000 nM.
